Measurements published in patent US20150306107A1, “SAA Derivative Compound Restores eNOS And Inhibits Oxidative Stress-Induced A Diseases In Hypoxia” (JANSFAT BIOTECHNOLOGY CO., LTD., priority 2014, published 2015).

What was measured:
eNOS = experiment: Immunohistochemistry of eNOS in pulmonary artery wall after long-term hypoxia; type: in vivo, rat
Experimental: For histological analysis, the rat pulmonary right lung sections or pulmonary artery were fixed in 4% formaldehyde for 1 hour at 4° C. After washing with phosphate buffer saline (PBS), they were sent for paraffin-embedded serial-sections. Serial cross-sections 7 μm thick were obtained from the cross-section of each pulmonary artery. Tissue sections were deparaffinized and rehydrated in an ethanol series. After tissue rehydration, endogenous peroxidase activity was quenched with 3% hydrogen peroxide for 30 minutes, and the sections were gently washed in PBS. Non-specific binding was blocked by incubation with 1% nonimmune bovine serum albumin (BSA) in PBS for 30 minutes at room temperature.
The tissue sections were incubated for 1 hour at room temperature with antibody against VEGF (ab1442, Millipore) or against eNOS (ab5589, Abcam) diluted 1:200 in PBS with 1% BSA. After being washed with PBS, the sections were incubated for 1 hour at room temperature with biotinylated goat antibody against rabbit (Dako, E-0432) and diluted 1:200 in PBS for 30 minutes at room temperature. The reaction was visualized by the addition of 3-3-diaminobenzidine (DAB) in a working solution of DAB substrate kit for peroxidase (vector lab, SK-4100) at room temperature for 5 minutes. The sections were washed in PBS for 10 minutes between each step, and counterstained with haematoxylin. […]

[1] = system: reactive oxygen species (ROS) of lung tissues; conditions: long-term hypoxia
Experimental: In our in vivo hypoxic experiments, 10-week old male Wistar rats were equally divided into four groups: a normoxia group, a hypoxia group, a hypoxia+SPAAX-1 or SPAAX-1 RX complex group, and a hypoxia+Sildenafil or Sildenafil RX complex group. All the rats were maintained on a 12-h light/12-hr dark cycle at 25±1° C. and were provided with food and water ad libitum. The normoxia group was housed in standard normoxic conditions and the other three treated groups were continuously housed in a hypoxic chamber (10% O2) for 21 days, except for a 30-min interval each day when the chamber was cleaned (FIG. 2). During which, a normoxic gas mixture was prepared from compressed air.
Pulmonary ROS was measured using 2′-7′-dichloro-fluorescein (H2DCF-DA, Molecular Probe, USA). Briefly, 10 μl of lung tissue extract was diluted 100-fold with cold PBS and labelled with 5 μmol/L 2′-7′-dichlorofluorescein, and the mixture was incubated at 37° C. for 30 minutes and put in a centrifuge (1000 rpm) for 5 min. Fluorescence was measured at 485 nm excitation and 530 nm emission to determine the concentration of H2O2 (FLUOstar Galaxy, Germany).

sGCα1 = experiment: Western blotting of sGCα1 in lung tissue after long-term hypoxia; type: in vivo, rat; conditions: hypoxia 21 days; compared to normoxia control
hypoxic rats [2] = experiment: Hemodynamics of rats with hypoxic PAH, chronic hypoxia 21 days; type: in vivo, rat; conditions: 5 mg/kg/day, p.o.
Source text: Int J Immunopathol Pharmacol 24:925, 2011). The heart weight and body weight ratio (HW/BW) of the rats treated with one of […] complex, Sildenafil or Sildenafil RX complex each measured on the 21st hypoxic day. All animal care and the experimental protocols of this study were approved by the Animal Care and Use Committee of the Kaohsiung Medical University. Male Wistar rats (200-250 g), provided by the National Laboratory Animal Breeding and Research Center (Taipei, Taiwan), were housed under constant temperature and controlled illumination. Food and water were available ad libitum. Normoxic rats were housed in room temperature air at normal atmospheric pressure (760 mm Hg). […] After completion of the exposure, tissues were prepared as indicated for contraction measurements, Western blot analysis, RNA extraction, or morphological analysis. […] Their breathing was normal and their body temperature was maintained at 37° C. […] The animals were then sacrificed by the administration of an overdose of urethane.

hypoxic rats [3] = experiment: Pulmonary artery wall thickness and muscularization (HE staining) after long-term hypoxia; type: in vivo, rat
Experimental: The right lobes of the rat lungs and heart of six rats from each group were cut and soaked in formalin, dehydrated through graded alcohols, and embedded in paraffin wax. The lung tissue specimens fixed with formalin (4%) were embedded in paraffin for one hour at 4° C., cut into 4-μm-thick sections, and subjected to H&E staining before examination by light microscope. In our histopathological study, we measured the thickening of the medial wall of the small intrapulmonary arteries under an Eclipse TE2000-S (Nikon) microscope. In the heart tissues, the 4-μm-thick paraffin sections were cut from paraffin-embedded tissue blocks and de-paraffinized by immersion in xylene and rehydrated as previously described (Bivalacqua T J, et al., PLoSONE 8: e68028. doi:10.1371/journal. pone.0068028). The slices were then dyed with H&E. After gently rinsing with water, each slide was dehydrated through graded alcohols and finally soaked in xylene twice. The relative cardiac weight of right ventricle (RV)/[left ventricle (LV)+intraventricular septum (S)] ratio (i.e. right heart index) was calculated using right ventricle/left ventricle+septum (RV/LV+S). Measurements were obtained with Histolab software (Microvision Instruments, Evry, France).

## Cn1c(=O)c2c(ncn2CCN2CCN(c3ccccc3Cl)CC2)n(C)c1=O.O=C1O[C@H]([C@@H](O)CO)C(O)=C1O [SPAAX-1 ascorbate complex, 7-[2-[4-(2-chlorobenzene)piperazinyl]ethyl]-1,3-dimethylxanthine.ascorbic acid]
eNOS
  eNOS immunostaining reactivity of pulmonary artery: restored the decay of eNOS
[1]
  hypoxia-induced increase of dichlorofluorescein (ROS of lung tissues): reduced
sGCα1
  sGCα1 expression in lung tissue: 40.4±8.4%
Hypoxic rats [2]
  BW (body weight): 28.8 ± 7.9 g
Hypoxic rats [2]; normoxia 12.9 ± 0.9, hypoxia 26.5 ± 0.6
  MPAP (mean pulmonary arterial pressure): 16.9±1.1 mmHg
Hypoxic rats [3]; hypoxia 21 days, 5 mg/kg/day
  Small pulmonary arterial morphology (<150 μm): highly improved
Hypoxic rats [3]; hypoxia 21 days, 5 mg/kg/day, hypoxia 165.8±5.4%
  hypoxia-induced pulmonary artery wall thickness: inhibited
Hypoxic rats [3]; hypoxic rats, versus vehicle only
  muscularizations of distal pulmonary artery (HE staining): significantly lower
